Measurements reported in PMC7308271, “Discovery of a new class of orthosteric antagonists with nanomolar potency at extrasynaptic GABAA receptors” (Scientific Reports, 2020).

Legend:
[1] = system: tonic currents in dentate gyrus granule cells; details: rat slice recordings, cited from earlier work
human BGT1 = biological target: T1, human BGT1 (Homo sapiens, UniProt P48065); experiment: Fluorescence interference control: BGT1-mediated GABA uptake in the FMP assay; type: cell-based; details: 110 μM GABA uptake by BGT1 in δ-HEK cells; 2027 at 30, 10, 3 μM
T1 construct: expressed in transfected cells; host or cells: δ-HEK cells, transient transfection (pcDNA5/FRT)
T1 sequence (P48065 1-614): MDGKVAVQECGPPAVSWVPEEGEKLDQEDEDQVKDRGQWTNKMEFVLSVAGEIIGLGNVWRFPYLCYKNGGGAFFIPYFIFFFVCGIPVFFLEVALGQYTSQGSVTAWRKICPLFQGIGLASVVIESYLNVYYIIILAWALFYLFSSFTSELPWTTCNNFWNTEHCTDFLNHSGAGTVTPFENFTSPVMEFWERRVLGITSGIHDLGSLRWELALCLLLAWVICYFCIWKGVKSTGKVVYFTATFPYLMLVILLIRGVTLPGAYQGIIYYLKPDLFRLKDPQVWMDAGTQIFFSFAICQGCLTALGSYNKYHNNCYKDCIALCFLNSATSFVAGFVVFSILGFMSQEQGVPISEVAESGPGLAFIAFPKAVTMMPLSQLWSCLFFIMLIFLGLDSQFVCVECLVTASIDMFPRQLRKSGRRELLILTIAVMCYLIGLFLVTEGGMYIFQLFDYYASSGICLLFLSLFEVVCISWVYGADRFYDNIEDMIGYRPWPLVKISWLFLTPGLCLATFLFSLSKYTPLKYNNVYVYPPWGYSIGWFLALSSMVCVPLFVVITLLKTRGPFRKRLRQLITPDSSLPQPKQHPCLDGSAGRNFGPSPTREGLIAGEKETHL
Description: (§1) To express recombinant GABAΑ receptors human α1, α2, α3, α5, α6, β2, γ2 (pcDNA3.1/Zeo) and α4, β1 (pUNIV)[26] subunit cDNA were transiently transfected into either δ-HEK or HEK background cells. δ-HEK cells were transfected with α- and β-subunits in a 1:1 ration whereas HEK background cells were transfected with α-, β- and γ-subunits in a 1:1:2 ratio. Human BGT1 (pcDNA5/FRT)[43] was transiently transfected into the δ-HEK cell line. δ-HEK cells transfected for whole-cell patch-clamp recordings were co-transfected with green fluorescent protein (GFP) as well as α- and β-subunits in a 0.5:1:1 ratio (0.8 μg + 1.6 μg + 1.6 μg in a 6 cm dish) in order to identify transfected cells. The transfection was carried out using Polyfect as transfection reagent according to the manufactures protocol expect for using half the recommended volume of Polyfect.
assay (perf ormed essentially as previously described in methods section and based on Al-Khawaja et al.).
in d-HEK cells was not decreased/quenched by 2027 in any of the tested concentrations. Data are shown as
means ± SD f rom a representative expe riment perf orme d in triplicate (n=2).
BGT1 expressed in HEK-δ cells

[2] = biological target: T2, human α4β1δ GABAΑ receptor (Homo sapiens, UniProt P18505+P48169); experiment: FMP assay at α4β1δ GABAA receptors in HEK cells (screening, concentration-inhibition, Schild analysis); type: cell-based; details: HEK293, read-out: inhibition of the GABA EC80 signal, primary screening, 10 μM, singlicates
T2 construct: expressed in transfected cells; host or cells: δ-HEK (HEK293 Flp-In stably expressing human δ), transiently transfected with α4 and β1 1:1
Description: We have previously established a FLIPR membrane potential (FMP) assay to study recombinant δ-containing GABAΑRs entailing a HEK293 Flp-In cell line stably expressing the human δ-subunit which is suitable for co-transfection with any desired α/β subunits. Initially, we validated the applicability of the FMP assay for efficient compound screening in 96-well microtiter plates using the human α4β1δ GABAΑR heterologously expressed in HEK cells. This receptor was chosen as we have previously shown this system to be reliable in expressing δ-containing receptors. To this end, we determined the Z′-factor, which is a statistical factor used to measure the suitability of an assay for high throughput screening.
Thus, we went on to further characterize 2027 by making a full concentration-inhibition curve.
HEK293 cells were maintained in DMEM containing GlutaMAX-I, supplemented with 10% FBS and 1% penicillin-streptomycin and incubated at 37 °C and a humidity of 5% CO2. For expression of δ-containing GABAΑ receptors, a HEK293 Flp-In^ΤΜ cell line stably expressing the human GABAΑ δ-subunits (referred to as δ-HEK) was used and the γ-containing subtypes was expressed in a background HEK293 Flp-In^ΤΜ cell line stably expressing the G-protein coupled peptide receptor NPBWR2 (referred to as HEK background)[26], both positively selected for using 200 μg/mL hygromycin B. α1β2γ2 receptors were stably expressed in a HEK293 cell line maintained as above but with no selection (gift from Marianne L. Jensen, Neurosearch).
as §1
The FMP assay was performed as previously described with a few modifications. Briefly, HEK cells were transfected as described[26] and 16–20 hours later plated (50,000 cells/well in DMEM medium) into clear-bottomed black 96-well plates coated with poly-D-lysine and the assay performed 20–28 hours later. The assay protocol including the FMP blue dye incorporation into membranes was exactly as described in Falk-Petersen et al.[26]. […] Data was obtained as changes in fluorescence units (∆RFU) by measuring emission at 560 nm caused by excitation at 530 nm. Unless otherwise mentioned in the text or figure legends experiments were performed in at least three independent experiments each using three technical replicates.
Data obtained in the FMP assay are given as relative changes in fluorescence units (ΔRFU) by subtracting the average of the baseline fluorescence signal from the peak fluorescence signal after compound addition. All raw traces were inspected manually and peak signals resulting from compound/buffer addition together with signal artefacts were omitted from the analysis.
The concentration-response curves obtained in the FMP assay for both agonists (determining EC50 values) and antagonists (determining IC50 values) were fitted using the four-parameter concentration-response model: Response=bottom+top−bottom/1+10^[(logEC50-A)⋅nH] EC/IC50 values describe the concentration resulting in the half-maximal response (halfway between top and bottom), and nΗ is the Hill coefficient.

T2 sequence (P48169 36-554): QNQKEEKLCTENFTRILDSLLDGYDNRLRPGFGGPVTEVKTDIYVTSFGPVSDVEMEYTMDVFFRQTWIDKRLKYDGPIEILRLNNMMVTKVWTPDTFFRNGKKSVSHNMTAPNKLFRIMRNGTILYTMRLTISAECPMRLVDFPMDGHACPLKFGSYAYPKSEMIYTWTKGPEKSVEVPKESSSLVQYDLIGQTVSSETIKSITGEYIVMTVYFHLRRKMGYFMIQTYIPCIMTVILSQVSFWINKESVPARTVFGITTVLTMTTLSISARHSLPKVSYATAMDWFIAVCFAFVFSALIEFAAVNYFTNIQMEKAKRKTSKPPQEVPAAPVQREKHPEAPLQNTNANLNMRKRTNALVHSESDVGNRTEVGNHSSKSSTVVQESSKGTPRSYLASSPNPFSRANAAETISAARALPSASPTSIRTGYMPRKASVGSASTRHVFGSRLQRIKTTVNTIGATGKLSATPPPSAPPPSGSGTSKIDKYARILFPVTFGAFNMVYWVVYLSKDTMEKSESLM
T2 sequence (P18505 26-474): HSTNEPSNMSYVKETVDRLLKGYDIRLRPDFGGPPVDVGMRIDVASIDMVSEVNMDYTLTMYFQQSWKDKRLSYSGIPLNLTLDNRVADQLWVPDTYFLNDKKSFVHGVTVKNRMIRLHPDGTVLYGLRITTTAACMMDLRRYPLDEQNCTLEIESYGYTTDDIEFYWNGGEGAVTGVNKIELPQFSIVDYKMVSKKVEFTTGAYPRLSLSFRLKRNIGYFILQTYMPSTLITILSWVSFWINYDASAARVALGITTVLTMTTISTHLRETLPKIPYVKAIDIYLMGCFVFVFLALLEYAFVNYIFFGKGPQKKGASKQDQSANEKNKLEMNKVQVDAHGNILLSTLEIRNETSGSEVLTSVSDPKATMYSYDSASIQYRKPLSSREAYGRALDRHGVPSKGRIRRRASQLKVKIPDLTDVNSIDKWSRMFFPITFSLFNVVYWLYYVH
T2 sequence (O14764 25-452 partner): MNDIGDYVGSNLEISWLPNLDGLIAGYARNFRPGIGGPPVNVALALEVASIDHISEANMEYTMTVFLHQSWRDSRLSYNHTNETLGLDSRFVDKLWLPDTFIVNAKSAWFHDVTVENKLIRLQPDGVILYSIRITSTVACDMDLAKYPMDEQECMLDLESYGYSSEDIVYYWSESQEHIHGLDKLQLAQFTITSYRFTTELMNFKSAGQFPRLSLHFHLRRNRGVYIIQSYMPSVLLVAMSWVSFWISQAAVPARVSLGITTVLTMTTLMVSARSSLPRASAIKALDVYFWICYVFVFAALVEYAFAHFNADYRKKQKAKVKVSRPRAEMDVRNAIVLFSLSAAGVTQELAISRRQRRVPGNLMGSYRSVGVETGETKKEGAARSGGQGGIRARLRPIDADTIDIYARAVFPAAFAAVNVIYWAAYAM

In the case of `Oc1noc(C2CCNCC2)c1CCC(c1ccccc1)c1ccccc1` [DPP-4-PIOL], the IC50 ([1]; read-out: IC50 inhibiting tonic currents) is listed as 0.87 nM and the “potency in inhibiting tonic over phasic currents” value [1] is listed as “approximately 20 times”.

With `COc1ccc(-c2ccc(=N)n(CCCC(=O)O)n2)cc1` [Gabazine, reference compound] the “interference with / quenching of the fluorescence signal” value (human BGT1) was “do not interfere”.

For `COc1ccccc1NC(=O)C1CCN(Cc2ccco2)CC1` [compound 2100, 1-(furan-2-ylmethyl)-N-(2-methoxyphenyl)piperidine-4-carboxamide], the inhibition at 10 µM [2] was over 50%.
